Laboratory results taken from patent publication US20050282159A1, “Rpob gene of streptomyces, primer specific to streptomyces, and identification method of streptomyces having rifampin resistance or sensitivity by using the same” (priority 2001, published 2005).

Tests used:
[1] = tested on: S. achromogenes KCTC 1740; experiment: rifampin-sensitive test on Bennet solid media; format: cell-based; parameters: key: “(+)” indicates a genotype with rifampin-resistance; “(−)” indicates a genotype with rifampin-susceptibility; settings: TCG (TCC) genotype, 25 ug/ml rifampin, 72 hr
Protocol: (§1) The 47 strains were respectively cultured at 28° C. for 72 hr in Bennet liquid media. The culture solution was then inoculated on Bennet solid media (yeast extract 1 g/L, Beef extract 1 g/L, Tryptone 2 g/L, Glycerol 10 g/L, Agar 15 g/L) containing 25 ug/ml rifampin, and after incubation for 72 hr, rifampin-resistance was tested.

[2] = tested on: S. aculeolatus KCTC 9680; experiment: rifampin-sensitive test on Bennet solid media; format: cell-based; parameters: key: “(+)” indicates a genotype with rifampin-resistance; “(−)” indicates a genotype with rifampin-susceptibility; settings: AAC genotype, 25 ug/ml rifampin, 72 hr
Protocol: as §1

[3] = tested on: S. albireticuli KCTC 9685; experiment: rifampin-sensitive test on Bennet solid media; format: cell-based; parameters: key: “(+)” indicates a genotype with rifampin-resistance; “(−)” indicates a genotype with rifampin-susceptibility; settings: TCG (TCC) genotype, 25 ug/ml rifampin, 72 hr
Protocol: as §1

[4] = tested on: S. albogriseolus KCTC 9773; experiment: rifampin-sensitive test on Bennet solid media; format: cell-based; parameters: key: “(+)” indicates a genotype with rifampin-resistance; “(−)” indicates a genotype with rifampin-susceptibility; settings: AAC genotype, 25 ug/ml rifampin, 72 hr
Protocol: as §1

[5] = tested on: S. albus KCTC 1082; experiment: rifampin-sensitive test on Bennet solid media; format: cell-based; parameters: key: “(+)” indicates a genotype with rifampin-resistance; “(−)” indicates a genotype with rifampin-susceptibility; settings: AAC genotype, 25 ug/ml rifampin, 72 hr
Protocol: as §1

[6] = tested on: S. armeniacus KCTC 9120; experiment: rifampin-sensitive test on Bennet solid media; format: cell-based; parameters: key: “(+)” indicates a genotype with rifampin-resistance; “(−)” indicates a genotype with rifampin-susceptibility; settings: AAC genotype, 25 ug/ml rifampin, 72 hr
Protocol: as §1

[7] = tested on: S. bacillaris KCTC 9018; experiment: rifampin-sensitive test on Bennet solid media; format: cell-based; parameters: key: “(+)” indicates a genotype with rifampin-resistance; “(−)” indicates a genotype with rifampin-susceptibility; settings: TCG (TCC) genotype, 25 ug/ml rifampin, 72 hr
Protocol: as §1

[8] = tested on: S. bambergiensis KCTC 9019; experiment: rifampin-sensitive test on Bennet solid media; format: cell-based; parameters: key: “(+)” indicates a genotype with rifampin-resistance; “(−)” indicates a genotype with rifampin-susceptibility; settings: TCG (TCC) genotype, 25 ug/ml rifampin, 72 hr
Protocol: as §1

[9] = tested on: S. capillispiralis KCTC 1719; experiment: rifampin-sensitive test on Bennet solid media; format: cell-based; parameters: key: “(+)” indicates a genotype with rifampin-resistance; “(−)” indicates a genotype with rifampin-susceptibility; settings: AAC genotype, 25 ug/ml rifampin, 72 hr
Protocol: as §1

[10] = tested on: S. carpinensis KCTC 9128; experiment: rifampin-sensitive test on Bennet solid media; format: cell-based; parameters: key: “(+)” indicates a genotype with rifampin-resistance; “(−)” indicates a genotype with rifampin-susceptibility; settings: TCG (TCC) genotype, 25 ug/ml rifampin, 72 hr
Protocol: as §1

[11] = tested on: S. catenulae KCTC 9223; experiment: rifampin-sensitive test on Bennet solid media; format: cell-based; parameters: key: “(+)” indicates a genotype with rifampin-resistance; “(−)” indicates a genotype with rifampin-susceptibility; settings: TCG (TCC) genotype, 25 ug/ml rifampin, 72 hr
Protocol: as §1

[12] = tested on: S. celluloflavus KCTC 9702; experiment: rifampin-sensitive test on Bennet solid media; format: cell-based; parameters: key: “(+)” indicates a genotype with rifampin-resistance; “(−)” indicates a genotype with rifampin-susceptibility; settings: TCG (TCC) genotype, 25 ug/ml rifampin, 72 hr
Protocol: as §1

[13] = tested on: S. chrysomallus KCTC 9705; experiment: rifampin-sensitive test on Bennet solid media; format: cell-based; parameters: key: “(+)” indicates a genotype with rifampin-resistance; “(−)” indicates a genotype with rifampin-susceptibility; settings: TCG (TCC) genotype, 25 ug/ml rifampin, 72 hr
Protocol: as §1

[14] = tested on: S. coelicolor KCTC 9005; experiment: rifampin-sensitive test on Bennet solid media; format: cell-based; parameters: key: “(+)” indicates a genotype with rifampin-resistance; “(−)” indicates a genotype with rifampin-susceptibility; settings: AAC genotype, 25 ug/ml rifampin, 72 hr
Protocol: as §1

[15] = tested on: S. echinoruber KCTC 9725; experiment: rifampin-sensitive test on Bennet solid media; format: cell-based; parameters: key: “(+)” indicates a genotype with rifampin-resistance; “(−)” indicates a genotype with rifampin-susceptibility; settings: AAC genotype, 25 ug/ml rifampin, 72 hr
Protocol: as §1

[16] = tested on: S. flavofuscus KCTC 9737; experiment: rifampin-sensitive test on Bennet solid media; format: cell-based; parameters: key: “(+)” indicates a genotype with rifampin-resistance; “(−)” indicates a genotype with rifampin-susceptibility; settings: AAC genotype, 25 ug/ml rifampin, 72 hr
Protocol: as §1

[17] = tested on: S. galilaeus KCTC 1919; experiment: rifampin-sensitive test on Bennet solid media; format: cell-based; parameters: key: “(+)” indicates a genotype with rifampin-resistance; “(−)” indicates a genotype with rifampin-susceptibility; settings: AAC genotype, 25 ug/ml rifampin, 72 hr
Protocol: as §1

[18] = tested on: S. phaeochromogenes KCTC 9763; experiment: rifampin-sensitive test on Bennet solid media; format: cell-based; parameters: key: “(+)” indicates a genotype with rifampin-resistance; “(−)” indicates a genotype with rifampin-susceptibility; settings: AAC genotype, 25 ug/ml rifampin, 72 hr
Protocol: as §1

[19] = tested on: S. pulveraceus KCTC 9766; experiment: rifampin-sensitive test on Bennet solid media; format: cell-based; parameters: key: “(+)” indicates a genotype with rifampin-resistance; “(−)” indicates a genotype with rifampin-susceptibility; settings: AAC genotype, 25 ug/ml rifampin, 72 hr
Protocol: as §1

[20] = tested on: S. sclerotialus KCTC 9065; experiment: rifampin-sensitive test on Bennet solid media; format: cell-based; parameters: key: “(+)” indicates a genotype with rifampin-resistance; “(−)” indicates a genotype with rifampin-susceptibility; settings: AAC genotype, 25 ug/ml rifampin, 72 hr
Protocol: as §1

[21] = tested on: S. spectabilis KCTC 9218; experiment: rifampin-sensitive test on Bennet solid media; format: cell-based; parameters: key: “(+)” indicates a genotype with rifampin-resistance; “(−)” indicates a genotype with rifampin-susceptibility; settings: AAC genotype, 25 ug/ml rifampin, 72 hr
Protocol: as §1

[22] = tested on: S. albaduncus KCTC 1741; settings: AAC genotype
Protocol: (§2) The primer sets of SEQ ID NOs: 1 and 2 were used to amplify rpoB genes of 60 strains, and nucleotides of the […] products were analyzed with an automatic sequencer. SRPOF1 as a forward primer and SRPOR1 as a backward primer were used.

[23] = tested on: S. anulatus KCCM 40190; settings: AAC genotype
Protocol: as §2

[24] = tested on: S. fulvissimus KCTC 9773; settings: TCG (TCC) genotype
Protocol: as §2

[25] = tested on: S. hachijoense KCCM 32306; settings: TCG (TCC) genotype
Protocol: as §2

[26] = tested on: S. indigoferus KCCM 40495; settings: TCG (TCC) genotype
Protocol: as §2

[27] = tested on: S. kurssanovi KCCM 40527; settings: TCG (TCC) genotype
Protocol: as §2

[28] = tested on: S. piosus KCCM 40480; settings: AAC genotype
Protocol: as §2

[29] = tested on: 60 strains; experiment: rifampin genotype by rpoB nucleotide sequence analysis (summary); parameters: species or system Streptomyces; settings: the other 41 strains with TCG or TCC at the 352nd position
Protocol: as §2

For `CO[C@H]1/C=C/O[C@@]2(C)Oc3c(C)c(O)c4c(O)c(c(/C=N/N5CCN(C)CC5)c(O)c4c3C2=O)NC(=O)/C(C)=C\C=C\[C@H](C)[C@H](O)[C@@H](C)[C@@H](O)[C@@H](C)[C@H](OC(C)=O)[C@@H]1C` [rifampin], the “genotype (rifampin-resistance or susceptibility)” value [1] was “−”, the “genotype (rifampin-resistance or susceptibility)” value [2] was “+” and the “genotype (rifampin-resistance or susceptibility)” value [3] was “−”. The “genotype (rifampin-resistance or susceptibility)” value [4] was “+”, the “genotype (rifampin-resistance or susceptibility)” value [5] was “+” and the “genotype (rifampin-resistance or susceptibility)” value [6] was “+”. For the same compound, the “genotype (rifampin-resistance or susceptibility)” value [7] was “−”, the “genotype (rifampin-resistance or susceptibility)” value [8] was “−” and the “genotype (rifampin-resistance or susceptibility)” value [9] was “+”. The “genotype (rifampin-resistance or susceptibility)” value [10] was “−”, the “genotype (rifampin-resistance or susceptibility)” value [11] was “−” and the “genotype (rifampin-resistance or susceptibility)” value [12] was “−”. For the same compound, the “genotype (rifampin-resistance or susceptibility)” value [13] was “−”, the “genotype (rifampin-resistance or susceptibility)” value [14] was “+” and the “genotype (rifampin-resistance or susceptibility)” value [15] was “+”. The “genotype (rifampin-resistance or susceptibility)” value [16] was “+”, the “genotype (rifampin-resistance or susceptibility)” value [17] was “+” and the “genotype (rifampin-resistance or susceptibility)” value [18] was “+”. For the same compound, the “genotype (rifampin-resistance or susceptibility)” value [19] was “+”, the “genotype (rifampin-resistance or susceptibility)” value [20] was “+” and the “genotype (rifampin-resistance or susceptibility)” value [21] was “+”. For the same compound, the “genotype (rifampin-resistant or -sensitive strain)” value [22] was “+”, the “genotype (rifampin-resistant or -sensitive strain)” value [23] was “+” and the “genotype (rifampin-resistant or -sensitive strain)” value [24] was “−”. The “genotype (rifampin-resistant or -sensitive strain)” value [25] was “−”, the “genotype (rifampin-resistant or -sensitive strain)” value [26] was “−” and the “genotype (rifampin-resistant or -sensitive strain)” value [27] was “−”. The “genotype (rifampin-resistant or -sensitive strain)” value [28] was “+” and the “rifampin genotype of the strains” value [29] was “rifampin-sensitive genotypes”.
